ChEMBL document CHEMBL4823282, “Novel Broad-Spectrum Antimicrobial Peptide Derived from Anoplin and Its Activity on Bacterial Pneumonia in Mice” (J Med Chem, 2021)
In brackets after ≈: the same amount, converted by molar mass. Where a SMILES comes first, the peptide text is derived from it.

Key:
Staphylococcus aureus = assay: Antibacterial activity against Staphylococcus aureus ATCC 25923 incubated for 18 hrs by CLSI based broth dilution method; format: functional
Pseudomonas aeruginosa [1] = assay: Antibacterial activity against Pseudomonas aeruginosa ATCC 27853 incubated for 18 hrs by CLSI based broth dilution method; format: functional
[2] = tested on: Staphylococcus epidermidis; assay: Antibacterial activity against Staphylococcus epidermidis ATCC 12228 incubated for 18 hrs by CLSI based broth dilution method; format: functional
Bacillus subtilis = assay: Antibacterial activity against Bacillus subtilis ATCC 23857 incubated for 18 hrs by CLSI based broth dilution method; format: functional
[3] = Selectivity ratio of MHC10 for BALB/C mouse erythrocytes to MIC for gram-negative bacteria; format: toxicity
[4] = Selectivity ratio of MHC10 for BALB/C mouse erythrocytes to MIC for gram positive bacteria; format: toxicity
Fungi = assay: Antibacterial activity against fungi incubated for 18 hrs by CLSI based broth dilution method; format: functional
[5] = Selectivity ratio of MHC10 for BALB/C mouse erythrocytes to MIC for bacteria; format: toxicity
Erythrocyte = assay: Hemolytic activity in BALB/C mouse erythrocytes incubated for 1 hr by absorbance method; format: ADME, cell-based
Klebsiella pneumoniae = assay: Antibacterial activity against Klebsiella pneumoniae ATCC 700603 incubated for 18 hrs by CLSI based broth dilution method; format: functional
Pseudomonas aeruginosa [6] = assay: Synergistic antibacterial activity against Pseudomonas aeruginosa ATCC 27853 at 2 times MIC incubated for 18 to 24 hrs in presence of 2 times MIC of rifampicin by broth microdilution assay based checkerboard assay; format: functional; conditions: time 18-24 hrs
Acinetobacter baumannii = assay: Antibacterial activity against Acinetobacter baumannii ATCC 19606 incubated for 18 hrs by CLSI based broth dilution method; format: functional; conditions: ATCC 19606 = CIP 70.34 = JCM 6841
Bacteria [7] = assay: Antibacterial activity against Gram-positive bacteria incubated for 18 hrs by CLSI based broth dilution method; format: functional
Bacteria [8] = assay: Antibacterial activity against bacteria incubated for 18 hrs by CLSI based broth dilution method; format: functional
[9] = Cytotoxicity against human glomerular mesangial cells incubated for 12 hrs by MTT assay; format: cell-based; conditions: Glomerular mesangial cell
[10] = Selectivity ratio of MHC10 for BALB/C mouse erythrocytes to MIC for fungi; format: toxicity
Pseudomonas aeruginosa [11] = assay: Synergistic antibacterial activity against Pseudomonas aeruginosa ATCC 27853 at 2 times MIC incubated for 18 to 24 hrs in presence of 2 times MIC of polymyxin B by broth microdilution assay based checkerboard assay; format: functional; conditions: time 18-24 hrs
Bacteria [12] = assay: Antibacterial activity against Gram-negative bacteria incubated for 18 hrs by CLSI based broth dilution method; format: functional
Escherichia coli = assay: Antibacterial activity against Escherichia coli ATCC 25922 incubated for 18 hrs by CLSI based broth dilution method; format: functional
Enterococcus faecalis = assay: Antibacterial activity against Enterococcus faecalis ATCC 29212 incubated for 18 hrs by CLSI based broth dilution method; format: functional

MIC (Staphylococcus aureus) [µM]	MIC (Pseudomonas aeruginosa [1]) [µM]	MIC [2] [µM]	MIC (Bacillus subtilis) [µM]	MIC (Fungi) [µM]	MIC (Klebsiella pneumoniae) [µM]	MIC (Acinetobacter baumannii) [µM]	MIC (Bacteria [7]) [µM]	MIC (Bacteria [8]) [µM]	MIC (Bacteria [12]) [µM]	MIC (Escherichia coli) [µM]	MIC (Enterococcus faecalis) [µM]	Compound	selectivity ratio [3]	selectivity ratio at 18 h [4]	selectivity ratio [5]	MHC10 (Erythrocyte)	FIC (Pseudomonas aeruginosa [6])	IC50 [9] [µM]	selectivity ratio [10]	FIC (Pseudomonas aeruginosa [11])
8 (≈ 12.9 µg/mL)	16 (≈ 25.9 µg/mL)	8 (≈ 12.9 µg/mL)	4 (≈ 6.47 µg/mL)	9.51 (≈ 15.4 µg/mL)	16 (≈ 25.9 µg/mL)	8 (≈ 12.9 µg/mL)	8 (≈ 12.9 µg/mL)	9.51 (≈ 15.4 µg/mL)	11.3 (≈ 18.3 µg/mL)	16 (≈ 25.9 µg/mL)	16 (≈ 25.9 µg/mL)	N=C(N)NCCC[C@H](NC(=O)[C@H](CCCCN)NC(=O)[C@H](Cc1c[nH]c2ccccc12)NC(=O)[C@H](Cc1c[nH]c2ccccc12)NC(=O)[C@@H](N)CCCCN)C(=O)N[C@@H](Cc1c[nH]c2ccccc12)C(=O)N[C@@H](CCCCN)C(=O)N[C@@H](CCCCN)C(=O)N[C@@H](Cc1c[nH]c2ccccc12)C(=O)N[C@@H](Cc1c[nH]c2ccccc12)C(N)=O (H-KWWKRWKKWW-NH2)	6.87	9.71	8.16	77.65 µM	0.3125	19.8	8.16	0.25
16 (≈ 22 µg/mL)	16 (≈ 22 µg/mL)	32 (≈ 43.9 µg/mL)	16 (≈ 22 µg/mL)	20.8 (≈ 28.5 µg/mL)	16 (≈ 22 µg/mL)	32 (≈ 43.9 µg/mL)	26.9 (≈ 36.9 µg/mL)	20.8 (≈ 28.5 µg/mL)	16 (≈ 22 µg/mL)	16 (≈ 22 µg/mL)	64 (≈ 87.9 µg/mL)	CC(C)C[C@H](NC(=O)[C@H](Cc1c[nH]c2ccccc12)NC(=O)CN)C(=O)N[C@@H](CCCCN)C(=O)N[C@@H](CCCNC(=N)N)C(=O)N[C@@H](Cc1c[nH]c2ccccc12)C(=O)N[C@@H](CCCCN)C(=O)N[C@H](C(=O)N[C@@H](CC(C)C)C(=O)N[C@@H](Cc1c[nH]c2ccccc12)C(N)=O)[C@@H](C)O (H-GWLKRWKTLW-NH2)	20	11.9	15.4	320 µM	0.3125	105	15.4	0.25
16 (≈ 21.8 µg/mL)	16 (≈ 21.8 µg/mL)	4 (≈ 5.45 µg/mL)	16 (≈ 21.8 µg/mL)	19 (≈ 25.9 µg/mL)	32 (≈ 43.6 µg/mL)	64 (≈ 87.2 µg/mL)	16 (≈ 21.8 µg/mL)	19 (≈ 25.9 µg/mL)	22.6 (≈ 30.8 µg/mL)	16 (≈ 21.8 µg/mL)	64 (≈ 87.2 µg/mL)	C[C@@H](O)[C@H](NC(=O)[C@H](CCCCN)NC(=O)[C@H](Cc1c[nH]c2ccccc12)NC(=O)[C@H](CCCNC(=N)N)NC(=O)[C@H](CCCCN)NC(=O)[C@H](Cc1ccccc1)NC(=O)[C@H](Cc1ccccc1)NC(=O)CN)C(=O)N[C@@H](Cc1ccccc1)C(=O)N[C@@H](Cc1ccccc1)C(N)=O (H-GFFKRWKTFF-NH2)	22.6	32	26.9	>= 512 uM	0.3125	48.2	26.9	0.25

Compound	MIC (Staphylococcus aureus) [µM]	MIC (Pseudomonas aeruginosa [1]) [µM]	MIC [2] [µM]	MIC (Bacillus subtilis) [µM]	MIC (Fungi) [µM]	MIC (Klebsiella pneumoniae) [µM]	MIC (Acinetobacter baumannii) [µM]	MIC (Bacteria [7]) [µM]	MIC (Bacteria [8]) [µM]	MIC (Bacteria [12]) [µM]	MIC (Escherichia coli) [µM]	MIC (Enterococcus faecalis) [µM]	selectivity ratio [3]	selectivity ratio at 18 h [4]	selectivity ratio [5]	MHC10 (Erythrocyte)	FIC (Pseudomonas aeruginosa [6])	IC50 [9] [µM]	selectivity ratio [10]	FIC (Pseudomonas aeruginosa [11])
CC(C)C[C@H](NC(=O)[C@H](CC(C)C)NC(=O)[C@@H](NC(=O)[C@H](CCCCN)NC(=O)[C@H](Cc1c[nH]c2ccccc12)NC(=O)[C@H](CCCNC(=N)N)NC(=O)[C@H](CCCCN)NC(=O)[C@H](CC(C)C)NC(=O)[C@H](CC(C)C)NC(=O)CN)[C@@H](C)O)C(N)=O (H-GLLKRWKTLL-NH2)	128 (≈ 157 µg/mL)	64 (≈ 78.5 µg/mL)	16 (≈ 19.6 µg/mL)	128 (≈ 157 µg/mL)	64 (≈ 78.5 µg/mL)	64 (≈ 78.5 µg/mL)	256 (≈ 314 µg/mL)	90.5 (≈ 111 µg/mL)	64 (≈ 78.5 µg/mL)	45.3 (≈ 55.6 µg/mL)	64 (≈ 78.5 µg/mL)	256 (≈ 314 µg/mL)	11.3	5.66	8	>= 512 uM	0.5625	≥ 512	8	0.3125
